From US20200165194A1, “ADDITIVE COMPOSITION FOR CULTURE MEDIUM, ADDITIVE COMPOUND FOR CULTURE MEDIUM, AND METHOD FOR CULTURE OF CELLS OR TISSUE USING SAME” (NISSAN CHEMICAL CORPORATION, priority 2017, published 2020)
Like-named read-outs stand apart in the source and are kept apart here.

Legend:
Type in all cases: cell-based
[1] = tested on: human alveolar basal epithelial adenocarcinoma-derived cell line A549; test: Various human cancer cells-2, 3D culture, ATP assay (Experimental Example 6); settings: 4 days
Protocol: (§1) Various human-derived cancer cells were precultured (single layer culture) in respective media shown below. […] The above-mentioned cells in the logarithmic growth phase were washed with PBS, a 0.25 w/v % trypsin-1 mmol/L EDTA (ethylenediaminetetraacetic acid) solution (manufactured by Wako Pure Chemical Industries, Ltd.) was added, and adherent cells were detached by incubating at 37° C. for 1-5 min. Each medium was added and the mixture was centrifuged. After resuspension in the same medium, each cell was recovered.
(§2) The aforementioned various cells were suspended in respective deacylated gellan gum-containing or not containing media (deacylated gellan gum concentration was 0.015 w/v %), and seeded in a 96 well low attachment U-bottom plate (manufactured by Corning, #4520, deacylated gellan gum-free medium), or a low attachment flat bottom plate (manufactured by Corning, #3474, deacylated gellan gum-containing medium) at a cell concentration of 700-12000 cells/90 μL/well (all 3D culture). […] The amount of each compound solution to be added was 10 μL/well. As a control, a DMSO solution dissolved in a medium was added (DMSO final concentration 0.1%). […] When compared with the compound no-addition (control), one showing a value of not more than 119% as -, one showing a value of not less than 120% as ◯, and one showing a value of not less than 150% as ⊚ are shown in the eleventh table and the twelfth table. Unperformed test is left blank.

[2] = tested on: human ovarian cancer cell line SKOV3; test: as above; settings: 4 days
Protocol: as §1, §2

[3] = tested on: Bone marrow-derived human mesenchymal stem cells (BM-hMSC); test: Human mesenchymal stem cell-2: 3D, EZSPHERE and 2D culture, ATP assay (Experimental Example 10); settings: for viability at 1 µM / viability at 5 µM / viability at 10 µM / viability at 20 µM: Homo sapiens, Mesenchymal stem cells, 96 h, read-out: relative value of RLU (number of viable cells), BM-hMSC, 4 days, non-addition = 100%
Protocol: Bone marrow-derived human mesenchymal stem cells (BM-hMSC, manufactured by PromoCell) were precultured by a single layer culture method (2D) using a mesenchymal stem cell proliferation medium (manufactured by PromoCell). In three-dimensional culture method (3D), hMSC was suspended in a medium composition added with deacylated gellan gum, and seeded in a […] flat bottom Ultr-low Attachment surface plate (manufactured by Corning Incorporated, #3474) at 6000 cells/90 μL/well. In the three-dimensional culture method using EZSPHERE (EZSPHERE), hMSC was suspended in a deacylated gellan gum-free medium composition, and seeded in a 96-well EZSPHERE plate (manufactured by AGC TECHNO GLASS CO., LTD., #4860-900) at 2000 cells/90 μL/well. In 2D, hMSC was suspended in a deacylated gellan gum-free medium composition, and seeded in a 96-well flat bottom plate (manufactured by Corning Incorporated, #3585) at 2000 cells/90 μL/well. […] As a control, DMSO was added at a final concentration of 0.1%.

hiPS cell line 253G1 = test: Human pluripotent stem cell (hiPS cell), EZSPHERE plate, ATP assay (Experimental Example 13)
In short: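 hiPS 253G1 cells maintained on vitronectin in mTeSR1, dissociated with TrypLE Select, then seeded at 10000 cells/well in EZSPHERE plates in medium with 10 μM Y-27632. Compound added, with half-medium exchange daily and compound replenished to hold concentration constant; DMSO control at 0.05% final.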

[4] = tested on: Human umbilical vein endothelial cells; test: Vascular endothelial cell, 3D culture, ATP assay (Experimental Example 14); settings: human umbilical vein endothelial cells under three-dimensional conditions
[5] = low attachment U-bottom plate, 5 μM
[6] = low attachment U-bottom plate, 10 μM
[7] = low attachment flat bottom plate (gellan gum medium), 5 μM
[8] = low attachment flat bottom plate (gellan gum medium), 10 μM

## CC/C(=N\NC(=O)NCc1cccc(O)c1)c1ccc(O)c(C)c1O [k-1:J-1]
[1]; [5]
  number of viable cells (RLU), relative value to control (100%): ⊙
[1]; [6]
  number of viable cells (RLU), relative value to control (100%): ⊙
[1]; [7]
  number of viable cells (RLU), relative value to control (100%): ⊙
[1]; [8]
  number of viable cells (RLU), relative value to control (100%): ⊙
[2]; [5]
  number of viable cells (RLU), relative value to control (100%): ⊙
[2]; [6]
  number of viable cells (RLU), relative value to control (100%): ⊙
[2]; [7]
  number of viable cells (RLU), relative value to control (100%): ⊙
[2]; [8]
  number of viable cells (RLU), relative value to control (100%): ⊙
[3]; 2D
  viability at 1 µM: 107%
  viability at 5 µM: 121%
  viability at 10 µM: 146%
  viability at 20 µM: 157%
[3]; 3D (deacylated gellan gum)
  viability at 1 µM: 132%
  viability at 5 µM: 330%
  viability at 10 µM: 579%
  viability at 20 µM: 773%
[3]; EZSPHERE plate
  viability at 1 µM: 149%
  viability at 5 µM: 241%
  viability at 10 µM: 321%
  viability at 20 µM: 231%
[3]; three-dimensional cell culture conditions
  proliferation activity (in words): promoted proliferation activity of BM-hMSC
[3]; two-dimensional cell culture conditions
  proliferation activity (in words): promoted proliferation activity of hMSC
hiPS cell line 253G1; hiPS 253G1, EZSPHERE plate, 5 μM, 3 days, RLU of DMSO addition = 100%
  relative value (%): 227%
hiPS cell line 253G1; human pluripotent stem cells under three-dimensional conditions
  proliferation activity (in words): promoted proliferation activity in human pluripotent stem cells
[4]
  proliferation activity (in words): promoted proliferation activity in human umbilical vein endothelial cells
